# Legend:
# [1] = tested on: virus isolates (IIIB, 030, 060 and 098)
# From the text: (§1) Assessment of biological properties included measurement of antiviral activity against HIV-1 strains. […] These assays score for reduction of infectious virus titer employing the indicator cell lines MAGI or the CCR5 expressing derivative cMAGI. Both cell lines exploit the ability of HIV-1 tat to transactivate the expression of a β-galactosidase reporter gene driven by the HIV-LTR. The β-gal reporter has been modified to localize in the nucleus and can be detected with the X-gal substrate as intense nuclear staining within a few days of infection. The number of stained nuclei can thus be interpreted as equal to the number of infectious virions in the challenge inoculum if there is only one round of infection prior to staining. […] In the MAGI and cMAGI assays, a 50% reduction in infectious titer (Vn/Vo=0.5) is significant, and provides the primary cutoff value for assessing antiviral activity (“IC50” is defined as the concentration of active ingredient resulting in a 50% reduction in infectious virus titer). […] The peptide (in the respective dilution) was added to the cMAGI or MAGI cells, followed by the virus inocula; and 24 hours later, an inhibitor of infection and cell-cell fusion (e.g., SEQ ID NO:2 (enfuvirtide)) was added to prevent secondary rounds of HIV infection and cell-cell virus spread. The cells were cultured for 2 more days, and then fixed and stained with the X-gal substrate to detect HIV-infected cells. The number of infected cells for each control and peptide dilution was determined with the CCD-imager, and then the IC50 was calculated (expressed in μg/ml).
# (§2) In particular, in vitro resistance comparison studies were performed between the novel SEQ ID NO:9 compound of interest and established antiviral agent SEQ ID NO:2, described in detail as follows: MT2 cells were infected with virus isolates (IIIB, 030, 060 and 098) and cultured in increasing concentrations of SEQ ID NO:2 (enfuvirtide) or SEQ ID NO:9 to select for resistance. The initial peptide concentration was approximately 2 times the IC50 of each peptide against the corresponding wild type isolate. Peptide concentrations were maintained by adding fresh peptide every 1-3 days. Cultures were monitored for cytopathic effect (CPE) using standard techniques and when maximal CPE was achieved, a small aliquot of virus was used for subsequent rounds of infection. Peptide concentrations were increased 2 to 4-fold depending on the length of time in culture when compared to the growth rate of wild type virus. During the course of selection, peptide-free virus stocks were also collected. Peptide-free virus stocks were characterized for gp41 genotypic changes by dideoxy sequencing chemistries and phenotypic susceptibility was determined using a cMAGI infectivity assay.
# [2] = tested on: 584.000060
# From the text: as §1, §2
# [3] = tested on: 584.000098
# From the text: as §1, §2
# [4] = tested on: 584.000030
# From the text: as §1, §2
# [5] = tested on: IIIB; conditions: starting virus isolate IIIB
# From the text: as §1, §2
# [6] = Intravenous pharmacokinetics in cynomolgus monkeys; type: in vivo, cynomolgus monkeys (Macaca fasicularis)
# Procedure: For determining pharmacokinetic properties, an HIV fusion inhibitor peptide or a base sequence from which an HIV fusion inhibitor peptide is derived was dosed intravenously in cynomolgus monkeys (Macaca fasicularis) (other animal models may be used for determining pharmacokinetic properties, as known in the art). At various times post-dose, blood samples were drawn and plasma isolated by centrifugation. Plasma samples were stored frozen until analysis by LC-MS (liquid chromatography/mass spectrometry) in the electrospray, positive-ion mode. An HIV fusion inhibitor or base sequence was eluted from a C18 or C8 HPLC column with a gradient of acetonitrile in a buffer of 10 mM ammonium acetate, pH 6.8. At the time of analysis, plasma samples were deproteinated with either two or three volumes of acetonitrile containing 0.5% formic acid. Duplicate calibration standards in cynomolgus plasma samples were prepared at the same time as the samples and analyzed before and after the samples containing either HIV fusion inhibitor peptide or base sequence. Pharmacokinetic properties were calculated from the plasma concentration-time data using either mono-exponential or bi-exponential mathematical models. Models were derived by non-linear least squares optimization. A 1/C^2 weighting of concentrations was used. The following equations were used to calculate area-under the plasma concentration vs. time curve (AUC), total body clearance (Cl), and terminal elimination half-life (t ½).
# Where A and B are intercepts and a and b are the rate constants of the exponential equations describing the distribution and elimination phases, respectively. When mono-exponential models were used, the “A” and “a” properties were eliminated.
# Cl=Dose/AUC (expressed in L/K/hr)
# t½=0.6903/b (expressed in hr)
# [7] = Stability in aqueous solution (PBS), peptide remaining in solution by HPLC; type: physicochemical; conditions: 10 mg/ml in PBS, about pH 7.3 to 7.5, 37° C., time point of 1 week
# [8] = Thermal stability (Tm) by CD signal at 222 nm; type: physicochemical; conditions: CD at 222 nm, maximum of first derivative of thermal transition
# Procedure: (§3) Assessment of biophysical parameters included measurement of helicity and thermal stability. Helicity was assessed by circular dichroism (“CD”) as follows. Briefly, CD spectra were obtained using a spectrometer equipped with a thermoelectric temperature controller. The spectra was obtained at 25° C. with 0.5 nanometer (nm) steps from 200 to 260 nm, with a 1.5 nm bandwith, and a typical averaging time of 4 seconds/step. After the cell/buffer blank was subtracted, spectra were smoothed using a third-order least-squares polynomial fit with a conservative window size to give random residuals. Raw ellipticity values were converted to mean residue ellipticity using standard methods, and plotted was the wavelength (from 200 to 260 nm) versus [θ]×10−3 (degrees cm^2/dmol). Percent helicity values were then calculated using standard methods (usually expressed as percent helicity at 10 μM, 25° C.). Assessment of thermal stability was performed by monitoring the change in CD signal at 222 nm as temperature was raised in 2° C. steps, with 1 minute equilibration times. The stability for each sample (e.g., HIV fusion inhibitor peptide), as represented by the Tm value, is the temperature corresponding to the maximum value of the first derivative of the thermal transition.
# [9] = Helicity by circular dichroism (CD); type: physicochemical; conditions: usually percent helicity at 10 μM, 25° C.
# Procedure: as §3
substance,measurement,setting,value
"Ac-TTWEAWDRAIAEYAARIEALLRALQEQQEKNEAALREL-NH2 [SEQ ID NO:9, TTWEAWDRAIAEYAARIEALLRALQEQQEKNEAALREL]",Fold Change in IC50,[1]; Geometric Mean of four isolates,24
same,Ending IC50,"[1]; Geometric Mean of four isolates, after selection",0.429 µg/mL
same,Starting IC50,"[1]; Geometric Mean of four isolates, before selection",0.018 µg/mL
same,"barrier to development of resistance in vitro, in words",[1]; compared to SEQ ID NO:2,higher barrier to development of resistance in vitro
same,Fold Change in IC50,[2]; starting virus isolate 584.000060,26
same,Ending IC50,"[2]; starting virus isolate 584.000060, after selection",0.208 µg/mL
same,Starting IC50,"[2]; starting virus isolate 584.000060, before selection",0.008 µg/mL
same,Fold Change in IC50,[3]; starting virus isolate 584.000098,14
same,Ending IC50,"[3]; starting virus isolate 584.000098, after selection",0.521 µg/mL
same,Starting IC50,"[3]; starting virus isolate 584.000098, before selection",0.037 µg/mL
same,Fold Change in IC50,[4]; starting virus isolate 584.000030,4
same,Ending IC50,"[4]; starting virus isolate 584.000030, after selection",0.113 µg/mL
same,Starting IC50,"[4]; starting virus isolate 584.000030, before selection",0.028 µg/mL
same,Fold Change in IC50,[5],231
same,Ending IC50,[5]; after selection,2.768 µg/mL
same,Starting IC50,[5]; before selection,0.012 µg/mL
same,"biological half-life relative to base sequence, in words",[6]; comment on Table 2,increased biological half-life
same,clearance,"[6]; cynomolgus monkey, plasma, iv, dosed intravenously",< 0.333 mL/min/kg
same,half-life,"[6]; cynomolgus monkey, plasma, iv, dosed intravenously, read-out: Half-life (t ½; hr) (converted)",12 h
same,peptide remaining detectable in solution,[7],≥ 90%
same,Tm (° C.),[8],62 °C
same,Helicity (%),[9],61%

# — patent US20090068243A1, “Novel formulations for delivery of antiviral peptide therapeutics” (priority 2007, published 2009)
